One assay concerns the target T1, KMT5A (Homo sapiens, UniProt Q9NQR1).
T1 sequence (Q9NQR1 1-393): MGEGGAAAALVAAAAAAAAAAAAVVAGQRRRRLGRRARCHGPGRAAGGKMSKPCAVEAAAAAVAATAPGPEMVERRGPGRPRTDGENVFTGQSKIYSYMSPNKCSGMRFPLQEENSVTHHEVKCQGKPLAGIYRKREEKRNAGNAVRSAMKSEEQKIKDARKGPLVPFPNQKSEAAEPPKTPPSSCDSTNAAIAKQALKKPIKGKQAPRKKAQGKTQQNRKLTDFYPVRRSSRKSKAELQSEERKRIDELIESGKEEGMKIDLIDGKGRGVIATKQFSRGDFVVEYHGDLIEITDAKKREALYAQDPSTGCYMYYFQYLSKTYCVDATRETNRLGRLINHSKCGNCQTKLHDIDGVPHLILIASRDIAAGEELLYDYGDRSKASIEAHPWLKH
Kind of assay: CETSA in HepG2 cells, KMT5A. Details: KMT5A upon treatment with compound 8 compared to DMSO; endogenous in cells; host or cells: HepG2. In kind it is cell-based. The protocol: (§1) For whole cell CETSA, the cells were incubated with 10/15 μM of compound 7b/8/8-N for 18 h. Then, cells were washed with cell culture medium, detached from the surface using trypsin, washed with PBS and the number of cells was determined. Cell concentration was adjusted to 3.6 × 10^7 cells/mL using in PBS with Complete (w/o EDTA, Roche) protease inhibitor. Then, cells were frozen in liquid nitrogen and thawed at 25 °C three times, before being divided in 16 aliquots. Each aliquot was heated to a defined temperature between 40 and 70 °C in a PCR cycler (16 well gradient, 55 °C ± 15). After 3 min incubation, aliquots were snap frozen in liquid nitrogen and thawed at 25 °C. Cell lysates were then centrifuged at 20,000 × g , 4 °C for 20 min. Supernatant were mixed with 5× loading buffer, heated to 70 °C for 5 min and analyzed by Western blotting essentially as previously described. For the CETSA performed with cell lysates, cells were directly harvested and lysed as described above. […]
(§2) Figure S5. […] Representative Western blots (D) and quantification (E) showing increased melting temperatures (ΔT m) of endogenous KMT9a upon treatment with compound 8 compared to DMSO. […] Representative Western blots (F) and quantification (G) showing no obvious shifting melting temperatures (ΔT m) of endogenous KMT5A upon treatment with compound 8 compared to DMSO. […]

In assay [1] the test system is H4K12me1 levels in PC-3 M prostate tumor cells. Put plainly: Western blot of cellular H4K12me1 levels. In kind it is cell-based. As to conditions: PC-3 M cells, 10 μM, 3 days. As for the experimental part: 7 Cellular activity of prodrug compound 8. (A) Levels of H4K12me1 in PC-3 M prostate tumor cells cultured in the presence of DMSO (−), 10 μM compound 8 or compound 8-N for 3 days were analyzed by Western blot using the indicated antibodies. Histone H4 was used as control. (B, C) Proliferation of Caco-2 cells treated with DMSO (Ctrl), compound 8, or compound 8-N were measured by Xcelligence. Data represent means ± s.d (n = 3). (D) Proliferation of HepG2 cells upon treatment of DMSO (Ctrl) and compound 8.
Experiments were performed as previously described. Histones used for Western blot analysis were extracted from cells as following: Cells were harvested, washed with PBS, resuspended in Triton Extraction Buffer (TEB; PBS, Triton ×100, 2 mM PMSF, 0.02% NaN3), stored 10 min on ice, centrifuged, and supernatant was discarded. After washing cells, a second time with TEB, pellets were resuspended in 0.2 N HCl and histones were acid-extracted overnight at 4 °C. Upon centrifugation for 10 min at 2000 rpm, supernatant was collected and protein concentration was determined. Three days before harvesting, cells were transfected with siRNA as indicated. The following antibodies were used: anti-KMT9α (#27630, lot 20062017, Schüle Lab), antihistone H4 (#ab10158, lot GR322677–1, Abcam), anti-H4K12me1 (#27429, lot 27062017, Schüle Lab).

The target in a further assay is T2, KMT9 (Homo sapiens, UniProt Q9Y5N5).
T2 sequence (Q9Y5N5 1-214): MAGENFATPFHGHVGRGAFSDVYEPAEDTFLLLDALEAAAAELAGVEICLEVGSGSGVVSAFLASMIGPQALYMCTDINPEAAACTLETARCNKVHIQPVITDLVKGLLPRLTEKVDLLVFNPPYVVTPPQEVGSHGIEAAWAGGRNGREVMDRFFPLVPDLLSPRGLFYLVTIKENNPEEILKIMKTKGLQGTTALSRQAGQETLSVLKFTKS
T2 sequence (Q9UI30 1-125 partner): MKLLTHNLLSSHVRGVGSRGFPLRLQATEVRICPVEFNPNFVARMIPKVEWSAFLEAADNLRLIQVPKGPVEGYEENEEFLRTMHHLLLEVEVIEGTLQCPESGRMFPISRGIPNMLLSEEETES
Put plainly: Microscale thermophoresis (MST) binding assay. As for the experimental part: To determine the binding affinity of the compound and KMT9, microscale thermophoresis (MST) analysis was performed with a NanoTemper Monolith NT.115 instrument (NanoTemper Technologies GmbH). KMT9 was labeled with a RED-Tris-NTA labeling kit (NanoTemper Technologies GmbH) based on the manufacturer’s instructions. Buffer including 25 mM HEPES (pH 7.5), 100 mM NaCl, 1 mM DTT and 0.05% Tween was used for the reaction buffer. Varying concentrations of compounds were titrated against His-tag labeled KMT9 proteins (20 nM). Samples were loaded into standard Capillaries (NanoTemper Technologies GmbH) and MST measurements were performed using 40% MST power and 100% LED power. For each set of binding experiments, MST measurement was carried out with Binding Affinity module in MO. Control program under Nano-RED excitation. Data sets were processed with the MO.Affinity Analysis software (NanoTemper Technologies GmbH).

A further assay concerns the target T3, KMT9a (Homo sapiens, UniProt Q9Y5N5).
T3 sequence (Q9Y5N5 1-214): T2 sequence (Q9Y5N5 1-214)
T3 sequence (Q9UI30 1-125 partner): T2 sequence (Q9UI30 1-125 partner)
Put plainly: CETSA in HepG2 cells, KMT9. In kind it is cell-based. The note with it: vs DMSO. Details: prodrug compound 8 can target endogenous KMT9; endogenous in cells; host or cells: HepG2. The protocol: as §1, §2

We go through one molecule from paper PMC12257510, “Structure-Guided Design of a KMT9 Inhibitor Prodrug with Cellular Activity” (Journal of Medicinal Chemistry, 2025).

In the case of `CCOC(=O)[C@@H](N)CCN(CCCNCCc1ccc(Oc2ccc(Cl)cc2)c(F)c1)C[C@H]1C[C@@H](n2ccc3c(NC)ncnc32)[C@H](O)[C@@H]1O` [compound 8, Ethyl (S)-2-amino-4-((3-((4-(4-chlorophenoxy)-3-fluorophenethyl)amino)propyl) (((1R,2R,3S,4R)-2,3-dihydroxy-4-(4-(methylamino)-7H-pyrrolo[2,3-d]pyrimidin-7-yl)cyclopentyl)methyl)amino)butanoate], the ΔTm at 15 µM at KMT5A came to 0.1 °C; on KMT9a, 8 °C. Also, the “Levels of H4K12me1” value in assay [1] is listed as “reduced H4K12me1 levels”. In addition, on KMT9 (Kd ratio vs compound 7b), the “Decrease of binding affinity compared to compound 7b” value was “more than 10,000 fold”. Besides, the Kd on KMT9 (MST, binding to KMT9, read-out: Kd) was more than 400 µM.
